Reference: the supplement of paper PMC10627819

How the values were obtained:
S. pneumoniae D39V [1] = experiment: fitness (endpoint OD595 vs no drug) (fraction); higher = more growth
Procedure, shortened: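 Bacterial fitness was scored as optical density at the stationary-phase transition relative to the robust mean of no-drug control wells. Scores are capped at 1. The growth data were OD595 readings every 30 min for 14 h at 37 °C, background-subtracted against the first reading, from 384-well plates inoculated at OD595 0.01 in TSB, LB Lennox or CY.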

B. subtilis 168 = experiment: Bliss interaction score (quartile over a dose matrix) (fitness difference); higher = more antagonism (negative = synergy)
Procedure, shortened: (§1)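 Each OD595 reading at entry into stationary phase was scaled to the robust mean of the untreated wells on its plate, with a ceiling of 1. These ratios define fitness, and single-drug fitness was inferred from combinations. The Bliss score compares observed fitness with the product-based expectation and is reported as quartiles across all replicate types, technical, biological and donor/recipient.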

S. aureus DSM 20231 = experiment: as above
Procedure, shortened: as §1

S. pneumoniae D39V [2] = experiment: as above
Procedure, shortened: as §1

S. aureus Newman = experiment: as above
Procedure, shortened: as §1
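Wherever Bliss interaction score (quartile over a dose matrix) is given: first quartile when negative (synergy) and third quartile when positive (antagonism).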
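Wherever fitness (endpoint OD595 vs no drug) is given: OD595 on entry to stationary phase over no-drug wells; at most 1.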

C[C@H]1COc2c(N3CCN(C)CC3)c(F)cc3c(=O)c(C(=O)O)cn1c23 [Levofloxacin] + Cn1nnc(-c2ccc(-c3ccc(N4C[C@H](CO)OC4=O)cc3F)cn2)n1 [Tedizolid]
fitness, S. pneumoniae D39V [1]
Conditions	first compound 0.1725 µg/mL	first compound 0.2 µg/mL	first compound 0.345 µg/mL	first compound 0.4 µg/mL	first compound 0.69 µg/mL	first compound 0.8 µg/mL
partner 0.03125 µg/mL	–	0.921	–	0.855	–	0.629
partner 0.0625 µg/mL	–	0.94	–	0.878	–	0.731
partner 0.125 µg/mL	0.758	0.768	0.703	0.731	0.433	0.608
partner 0.25 µg/mL	0.826	–	0.757	–	0.401	–
partner 0.5 µg/mL	0.243	–	0.203	–	0.189	–

Conditions	Bliss interaction score
B. subtilis 168	0.0224
S. aureus DSM 20231	0.0821
S. aureus Newman	0.057
S. pneumoniae D39V [2]	-0.126

CCN(CC)CCOC(=O)c1ccc(N)cc1 [Procaine] + CO[C@H]1/C=C/O[C@@]2(C)Oc3c(C)c(O)c4c(O)c(c(/C=N/N5CCN(C)CC5)c(O)c4c3C2=O)NC(=O)/C(C)=C\C=C\[C@H](C)[C@H](O)[C@@H](C)[C@@H](O)[C@@H](C)[C@H](OC(C)=O)[C@@H]1C [Rifampicin]
S. pneumoniae D39V [1], partner 0.025 µg/mL, one replicate
Conditions	fitness
first compound 85.5 µg/mL	0.903
first compound 171 µg/mL	0.875
first compound 342 µg/mL	0.919

fitness, S. pneumoniae D39V [1]
Conditions	first compound 85.5 µg/mL	first compound 171 µg/mL	first compound 342 µg/mL
partner 0.05 µg/mL	0.927	0.909	0.984
partner 0.2 µg/mL	0.102	0.0616	0.132

Conditions	Bliss interaction score
B. subtilis 168	-0.0578
S. aureus DSM 20231	-0.054
S. aureus Newman	-0.0206
S. pneumoniae D39V [2]	0.0704

CO/N=C(\C(=O)N[C@@H]1C(=O)N2C(C(=O)[O-])=C(C[N+]3(C)CCCC3)CS[C@H]12)c1csc(N)n1 [Cefepime] + O=C1CN(/N=C/c2ccc([N+](=O)[O-])o2)C(=O)N1 [Nitrofurantoin]
fitness, S. pneumoniae D39V [1]
Conditions	first compound 0.007 µg/mL	first compound 0.0078 µg/mL	first compound 0.014 µg/mL	first compound 0.0155 µg/mL	first compound 0.028 µg/mL	first compound 0.031 µg/mL
partner 1.285 µg/mL	–	0.957	–	0.943	–	0.811
partner 2 µg/mL	0.988	–	0.979	–	0.912	–
partner 2.57 µg/mL	–	0.962	–	0.942	–	0.738
partner 4 µg/mL	0.991	–	0.955	–	0.887	–
partner 8 µg/mL	0.949	–	0.927	–	0.843	–

S. pneumoniae D39V [1], partner 5.14 µg/mL, one replicate
Conditions	fitness
first compound 0.0078 µg/mL	0.959
first compound 0.0155 µg/mL	0.993
first compound 0.031 µg/mL	0.825

Conditions	Bliss interaction score
B. subtilis 168	-0.125
S. aureus DSM 20231	0.0422
S. aureus Newman	0.0549
S. pneumoniae D39V [2]	0.188

CN(C)C(=O)C(CCN1CCC(O)(c2ccc(Cl)cc2)CC1)(c1ccccc1)c1ccccc1 [Loperamide] + CN[C@H](CC(C)C)C(=O)N[C@H]1C(=O)N[C@@H](CC(N)=O)C(=O)N[C@H]2C(=O)N[C@H]3C(=O)N[C@H](C(=O)N[C@H](C(=O)O)c4cc(O)cc(O)c4-c4cc3ccc4O)[C@H](O)c3ccc(c(Cl)c3)Oc3cc2cc(c3O[C@@H]2O[C@H](CO)[C@@H](O)[C@H](O)[C@H]2O[C@H]2C[C@](C)(N)[C@H](O)[C@H](C)O2)Oc2ccc(cc2Cl)[C@H]1O [Vancomycin]
S. pneumoniae D39V [1]
Conditions	fitness
first compound 17.14 µg/mL, partner 0.5 µg/mL	0.0584
first compound 20 µg/mL, partner 0.03125 µg/mL	≥ 1
first compound 20 µg/mL, partner 0.0625 µg/mL	0.937
first compound 34.28 µg/mL, partner 0.25 µg/mL	0.77
first compound 34.28 µg/mL, partner 0.5 µg/mL	0.0876
first compound 40 µg/mL, partner 0.03125 µg/mL	0.959
first compound 40 µg/mL, partner 0.0625 µg/mL	0.866
first compound 80 µg/mL, partner 0.125 µg/mL	0.28

S. pneumoniae D39V [1], first compound 68.57 µg/mL, one replicate
Conditions	fitness
partner 0.125 µg/mL	0.942
partner 0.25 µg/mL	0.853
partner 0.5 µg/mL	0.0639

Conditions	Bliss interaction score
B. subtilis 168	-0.0281
S. aureus DSM 20231	-0.0861
S. aureus Newman	0.0922
S. pneumoniae D39V [2]	-0.184

CCCCCCCCCC(=O)N[C@@H](Cc1c[nH]c2ccccc12)C(=O)N[C@H](CC(N)=O)C(=O)N[C@@H](CC(=O)O)C(=O)N[C@@H]1C(=O)NCC(=O)N[C@@H](CCCN)C(=O)N[C@@H](CC(=O)O)C(=O)N[C@H](C)C(=O)N[C@@H](CC(=O)O)C(=O)NCC(=O)N[C@H](CO)C(=O)N[C@@H]([C@H](C)CC(=O)O)C(=O)N[C@@H](CC(=O)c2ccccc2N)C(=O)O[C@@H]1C [Daptomycin] + O=C1CN(/N=C/c2ccc([N+](=O)[O-])o2)C(=O)N1 [Nitrofurantoin]
fitness, S. pneumoniae D39V [1]
Conditions	partner 1.285 µg/mL	partner 2 µg/mL	partner 2.57 µg/mL	partner 4 µg/mL	partner 8 µg/mL
first compound 1 µg/mL	0.981	0.883	0.946	0.788	0.338
first compound 2 µg/mL	0.943	0.85	0.904	0.763	0.327
first compound 4 µg/mL	0.948	0.808	0.948	0.704	0.34

S. pneumoniae D39V [1], partner 5.14 µg/mL, one replicate
Conditions	fitness
first compound 1 µg/mL	0.839
first compound 2 µg/mL	0.82
first compound 4 µg/mL	0.883

Conditions	Bliss interaction score
B. subtilis 168	-0.0871
S. aureus DSM 20231	0.0921
S. aureus Newman	0.0519
S. pneumoniae D39V [2]	0.0606

C[C@H]1COc2c(N3CCN(C)CC3)c(F)cc3c(=O)c(C(=O)O)cn1c23 [Levofloxacin] + O=C1CN(/N=C/c2ccc([N+](=O)[O-])o2)C(=O)N1 [Nitrofurantoin]
fitness, S. pneumoniae D39V [1]
Conditions	first compound 0.1725 µg/mL	first compound 0.2 µg/mL	first compound 0.345 µg/mL	first compound 0.4 µg/mL	first compound 0.69 µg/mL	first compound 0.8 µg/mL
partner 1.285 µg/mL	–	0.894	–	0.842	–	0.558
partner 2 µg/mL	0.921	–	0.852	–	0.568	–
partner 2.57 µg/mL	–	0.909	–	0.865	–	0.524
partner 4 µg/mL	0.92	–	0.797	–	0.535	–
partner 8 µg/mL	0.799	–	0.688	–	0.38	–

S. pneumoniae D39V [1], partner 5.14 µg/mL, one replicate
Conditions	fitness
first compound 0.2 µg/mL	0.86
first compound 0.4 µg/mL	0.75
first compound 0.8 µg/mL	0.317

Conditions	Bliss interaction score
B. subtilis 168	0.0577
S. aureus DSM 20231	0.027
S. aureus Newman	-0.0599
S. pneumoniae D39V [2]	-0.0691
